Three molecules from publication PMC11006142, “A divergent protein kinase A regulatory subunit essential for morphogenesis of the human pathogen Leishmania” (PLOS Pathogens, 2024) can be followed below.

The target of experiment [1] is T1, PKAR3 (protein kinase A regulatory subunit 3) (Leishmania donovani, UniProt A0A3S7X836).
T1 construct: gene LdCL_340034800
The experiment can be described thus: isothermal titration calorimetry (ITC), one-site model. In kind it is binding.

In experiment [2] the target is subpellicular microtubules (SPMT) of L. donovani promastigotes, detected as β-tubulin (L. donovani (endogenous in promastigotes)). The experiment can be described thus: FRET or BRET; fixed L. donovani promastigotes labelled with primary antibodies and secondary antibodies with Alexa Fluor 568 (donor) and 647 (acceptor); corrected acceptor FRET (Youvan), confocal microscopy. (In general: BRET reads energy transfer from a luciferase to a nearby fluorophore.)

T1 sequence (A0A3S7X836 entry or part of it): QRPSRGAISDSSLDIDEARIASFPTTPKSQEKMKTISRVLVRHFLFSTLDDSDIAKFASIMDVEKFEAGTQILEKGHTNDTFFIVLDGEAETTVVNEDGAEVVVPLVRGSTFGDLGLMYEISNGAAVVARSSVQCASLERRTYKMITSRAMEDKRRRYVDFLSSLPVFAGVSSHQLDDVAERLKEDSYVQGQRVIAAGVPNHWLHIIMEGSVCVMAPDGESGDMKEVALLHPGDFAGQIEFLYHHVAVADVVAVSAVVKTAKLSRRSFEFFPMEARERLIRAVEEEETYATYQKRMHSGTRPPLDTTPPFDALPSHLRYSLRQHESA

Turning to `N#Cc1cn([C@@H]2O[C@H](CO)[C@@H](O)[C@H]2O)c2ncnc(O)c12` [7-CN-7-C-Ino, 7-cyano-7-deaza-inosine], in experiment [1], the Kd – broadly, the free concentration of one partner at which half of the binding sites on the other are occupied at equilibrium, for simple one-to-one binding – worked out at 1 nM.
Same read-out and setting: in the case of `N#Cc1cn([C@@H]2O[C@H](CO)[C@@H](O)[C@H]2O)c2ncnc(N)c12` [Toyo, Toyocamycin] it was 3.8 nM.
“L. donovani PKAR3 lacking the N-terminal 90 amino acids (domain or fragment)” registered a decrease of FRET-positive pixels per cell against PKAR3FL in experiment [2] of 30%.
